According to DBAASP:
In brackets after ≈: the same amount, converted by molar mass.

Experiments:
Assay in all cases: ≥ marks a high value that may be exact or a test limit, other limits are often not marked, values filed in µg/mL are converted to µM
[1] = test system: Escherichia coli
[2] = test system: Staphylococcus aureus
[3] = test system: Pseudomonas aeruginosa
[4] = test system: Staphylococcus aureus ATCC 29213
[5] = test system: Escherichia coli ATCC 25922

Compound	MIC [1] [µM]	MIC [2] [µM]	MIC [3] [µM]	MIC [4] [µM]	MIC [5] [µM]
C[C@H](NC(=O)[C@H](C)NC(=O)[C@H](CCCCN)NC(=O)[C@H](C)NC(=O)[C@H](Cc1ccccc1)NC(=O)[C@H](Cc1c[nH]c2ccccc12)NC(=O)[C@H](CCCCN)NC(=O)[C@H](Cc1c[nH]c2ccccc12)NC(=O)[C@H](CCCCN)NC(=O)[C@H](CCCCN)NC(=O)[C@H](C)NC(=O)[C@H](Cc1c[nH]c2ccccc12)NC(=O)[C@@H](N)CCCCN)C(=O)N[C@@H](Cc1c[nH]c2ccccc12)C(=O)N[C@@H](CCCCN)C(=O)N[C@@H](Cc1c[nH]c2ccccc12)C(=O)N[C@@H](Cc1ccc(O)cc1)C(=O)N[C@@H](CCCCN)C(=O)N[C@@H](CCCCN)C(N)=O [KWAKKWKWFAKAAWKWYKK]	> 38.9	> 38.9	–	–	–
CC[C@H](C)[C@H](NC(=O)[C@H](Cc1ccccc1)NC(=O)[C@H](CO)NC(=O)[C@H](CCCCN)NC(=O)[C@H](Cc1c[nH]c2ccccc12)NC(=O)[C@@H](N)CCCCN)C(=O)N[C@@H](CCCCN)C(=O)N[C@@H](CCCCN)C(=O)N[C@@H](CC(C)C)C(=O)N[C@H](C(=O)N[C@@H](CC(C)C)C(=O)N[C@@H](CCCCN)C(=O)N[C@@H](Cc1ccccc1)C(=O)N[C@@H](CC(C)C)C(=O)N[C@@H](Cc1cnc[nH]1)C(=O)N[C@@H](CO)C(=O)N[C@@H](CCCCN)C(=O)N[C@@H](CCCCN)C(=O)N[C@@H](CCCCN)C(=O)N[C@@H](Cc1ccccc1)C(N)=O)[C@@H](C)O [KWKSFIKKLTLKFLHSKKKF]	–	–	> 19.7	–	–
CC[C@H](C)[C@H](NC(=O)[C@H](Cc1c[nH]c2ccccc12)NC(=O)[C@H](CCCCN)NC(=O)[C@@H]1CCCN1C(=O)[C@H](CC(C)C)NC(=O)[C@H](CCCCN)NC(=O)CNC(=O)[C@@H](NC(=O)[C@@H](NC(=O)[C@H](CO)NC(=O)[C@@H](NC(=O)[C@@H](NC(=O)[C@H](CCCCN)NC(=O)[C@H](CCC(N)=O)NC(=O)[C@H](C)NC(=O)[C@@H](N)CCSC)[C@@H](C)CC)[C@@H](C)CC)[C@@H](C)O)[C@@H](C)CC)C(=O)N[C@H](C(=O)N[C@@H](CCCCN)C(=O)N[C@H](C(=O)N[C@H](C(=O)N[C@@H](CC(N)=O)C(=O)N[C@@H](CCCCN)C(=O)N[C@@H](Cc1ccccc1)C(=O)N[C@H](C(=O)N[C@@H](CCCCN)C(=O)N[C@@H](CCCCN)C(=O)O)[C@@H](C)O)C(C)C)[C@@H](C)O)[C@@H](C)CC [MAQKIISTIGKLPKWIIKTVNKFTKK]	3.4 (≈ 10.3 µg/mL)	20.8 (≈ 62.7 µg/mL)	–	–	–
CC(C)C[C@H](NC(=O)[C@H](CCCCN)NC(=O)[C@@H]1CSSC[C@H](NC(=O)[C@H](CC(C)C)NC(=O)[C@H](CCCCN)NC(=O)[C@H](CC(C)C)NC(=O)[C@H](CC(C)C)NC(=O)[C@H](CCCCN)NC(=O)[C@H](CCCCN)NC(=O)[C@@H](N)CC(C)C)C(=O)N[C@@H](CCCCN)C(=O)N[C@@H](CCCCN)C(=O)N[C@@H](CC(C)C)C(=O)N1)C(=O)N[C@@H](C)C(=O)NCC(=O)O [LKKLLKLCKKLCKLAG]	20 (≈ 36 µg/mL)	–	–	> 40	5 (≈ 8.99 µg/mL)

The remaining lines, values ahead:

MIC [1] [µM]	MIC [2] [µM]	MIC [3] [µM]	MIC [4] [µM]	MIC [5] [µM]	Compound
3.74 (≈ 8 µg/mL)	7.49 (≈ 16 µg/mL)	7.49 (≈ 16 µg/mL)	–	–	CC(C)C[C@H](NC(=O)CNC(=O)[C@H](C)NC(=O)[C@H](CC(C)C)NC(=O)[C@H](CCCCN)NC(=O)[C@H](CCCCN)NC(=O)[C@H](C)NC(=O)[C@H](CC(C)C)NC(=O)CNC(=O)[C@H](C)NC(=O)[C@H](Cc1c[nH]c2ccccc12)NC(=O)[C@H](CCCCN)NC(=O)[C@H](CCCCN)NC(=O)[C@H](C)NC(=O)[C@H](CC(C)C)NC(=O)CNC(=O)[C@H](C)NC(=O)[C@H](CC(C)C)NC(=O)[C@H](CCCCN)NC(=O)[C@@H](N)CCCCN)C(=O)N[C@@H](C)C(N)=O [KKLAGLAKKWAGLAKKLAGLA]
–	15.5 (≈ 24.3 µg/mL)	86.6 (≈ 136 µg/mL)	–	–	CC[C@H](C)[C@H](N)C(=O)N[C@@H](CC(N)=O)C(=O)N[C@@H](Cc1c[nH]c2ccccc12)C(=O)N[C@@H](CC(C)C)C(=O)N[C@@H](CCCCN)C(=O)N[C@@H](CC(C)C)C(=O)NCC(=O)N[C@@H](CCCCN)C(=O)N[C@@H](CCCCN)C(=O)N[C@H](C(=O)N[C@@H](CC(C)C)C(=O)NCC(=O)N[C@@H](C)C(=O)N[C@@H](CC(C)C)C(N)=O)[C@@H](C)CC [INWLKLGKKILGAL]
